Tests used:
Assay type in all cases: cell-based
MOLM13 cells = assay: Cytotoxicity (WST-1 metabolic activity) towards AML cell line MOLM13; settings: for cytotoxic activity against the MOLM13 cells (in words): compared with a DMSO control, 72 hours of incubation; for EC50: Homo sapiens, MOLM-13, metabolic activity (WST-1) after 72 h of incubation, compounds diluted in DMSO, three independent experiments
Experimental: (§1) The pure compounds were diluted to create stock solutions with a final concentration of 20 mM in DMSO (Dimethyl Sulfoxide—for molecular biology, Sigma-Aldrich, Saint Louise, MO, USA). Normal rat kidney epithelial cells (NRK, ATCC no.: CRL-6509) and rat cardiomyoblasts (H9c2, ATCC no.: CRL-1446) were grown in DMEM medium enriched with 10% foetal bovine serum (FBS, Invitrogen, Carlsbad, CA, USA). Once the cells achieved 80% confluence, they were gently detached using trypsin treatment (0.33 mg/mL trypsin for 5 min at 37 °C), centrifuged (160× g, 4 min), and then reseeded in fresh medium to reach 25% confluence.
The AML cell line MOLM13 (DSMZ no.: ACC554, [39]) was maintained in RPMI-1640 medium supplemented with 10% FBS and 8 mM L-glutamine (Sigma Life Science, Dorset, UK). The cells were kept in suspension cultures with a density of 150,000 to 700,000 cells/mL.
(§2) All media were further supplemented with 1 IU/mL penicillin and 1 mg/mL streptomycin (both from Cambrex, Liège, Belgium) and incubated in a humidified environment (37 °C, 5% CO2). For the cytotoxicity experiments with compounds 11 to 15, the NRK and H9c2 cells were seeded in 96-well tissue culture plates (4000 cells/well, 0.1 mL) and left overnight to attach before treatments. The MOLM13 cells were seeded in 96-well tissue culture plates at 20,000 cells/well in 0.1 mL on the day of the experiment.
(§3) Compounds dissolved in DMSO were added to the cells, and the plates were incubated for 72 hours before adding the tetrazolium salt WST-1 according to the manufacturer’s instructions (Roche Diagnostics GmbH, Mannheim, Germany). The plates were further incubated for two hours before the signal was recorded at 450 nm with reference at 620 nm. For black subtraction, medium and plant compounds were added to WST-1. This procedure was performed after 24 and 72 h.
(§4) After recording WST-1, the cells were next fixed with 2% buffered formaldehyde (pH 7.4) with 0.01 mg/mL of the DNA-specific fluorescent dye, […]. As previously described, the presence of dead (apoptotic or necrotic) cells was verified by differential interference contrast and fluorescence microscopy.
(§5) EC50 values were determined by a four-parameter regression analysis as described by Viktorsson et al., using SigmaPlot ver. 14.0 (Systat Software Inc., San Jose, CA, USA).

H9c2 cells = assay: Cytotoxicity (WST-1 metabolic activity) towards rat cardiomyoblasts H9c2; settings: metabolic activity (WST-1) after 72 h of incubation, compounds diluted in DMSO, three independent experiments
Experimental: as §1, with “confluence. […]” for “confluence.”
as §3, with “For black subtraction, medium and plant compounds were added to WST-1. This procedure was performed after 24 and 72 h.” left out
as §4
EC50 values were determined by a four-parameter regression analysis as described by Viktorsson et al., using SigmaPlot ver. […]

NRK cells = assay: Cytotoxicity (WST-1 metabolic activity) towards normal rat kidney epithelial cells NRK; settings: for EC50: Rattus norvegicus, NRK, metabolic activity (WST-1) after 72 h of incubation, compounds diluted in DMSO, three experiments, "-" = no data available due to low or no toxicity
Experimental: as §1, §2, §3, §4, §5

SMILES: CC1OC(OC2C(OC3C(Oc4c(-c5ccc(O)cc5)oc5cc(O)cc(O)c5c4=O)OC(CO)C(O)C3O)OC(CO)C(O)C2O)C(O)C(O)C1O (stereo not drawn) [Compound 2, kaempferol 3-O-(2’’-O-(2’’’-α-rhamnopyranosyl)-β-glucopyranosyl)-β-glucopyranoside]
- cytotoxic activity against the MOLM13 cells (in words) (MOLM13 cells): Only compounds 11 and 15, which are γ- and δ-lactones, respectively, exhibited significant cytotoxic activity

SMILES: CC1OC(OC2C(OC3C(Oc4c(-c5ccc(O)c(O)c5)oc5cc(O)cc(O)c5c4=O)OC(CO)C(O)C3O)OC(CO)C(O)C2O)C(O)C(O)C1O (stereo not drawn) [Compound 3, quercetin 3-O-(2’’-O-(2’’’-α-rhamnopyranosyl)-β-glucopyranosyl)-β-glucopyranoside]
- cytotoxic activity against the MOLM13 cells (in words) (MOLM13 cells): Only compounds 11 and 15, which are γ- and δ-lactones, respectively, exhibited significant cytotoxic activity

SMILES: CO[C@H]1CC(=O)O[C@@H]1C(C)O (some centres unmarked) [Compound 12, 3-methoxy-5-hydroxy-4-olide]
- cytotoxic activity against the MOLM13 cells (in words) (MOLM13 cells): Only compounds 11 and 15, which are γ- and δ-lactones, respectively, exhibited significant cytotoxic activity

SMILES: CC(O)C1C=CC(=O)O1 (centres unmarked) [Compound 11, 5-hydroxy-2-hexen-4-olide]
- EC50 (MOLM13 cells): 46.2 ± 0.07 µM
- cytotoxic activity against the MOLM13 cells (in words) (MOLM13 cells): significant cytotoxic activity
- EC50 (H9c2 cells): 48.7 ± 0.18 µM
- EC50 (NRK cells): 49.6 ± 0.11 µM

SMILES: COc1cc(C2OC2CO)ccc1O (centres unmarked) [Compound 10, epoxyconiferyl alcohol]
- cytotoxic activity against the MOLM13 cells (in words) (MOLM13 cells): Only compounds 11 and 15, which are γ- and δ-lactones, respectively, exhibited significant cytotoxic activity

SMILES: CC(O)C1OC(=O)C(C2CC(=O)OC(C)C2O)C1O [Compound 13, (4R,5S,3’S,1’’S,4’R)-4-hydroxy-3-(3’-hydroxy-4’-(1-hydroxyethyl)-oxotetrahydrofuran-5-methyltetrahydropyranone]
- cytotoxic activity against the MOLM13 cells (in words) (MOLM13 cells): Only compounds 11 and 15, which are γ- and δ-lactones, respectively, exhibited significant cytotoxic activity

SMILES: CC(O)C(=O)CCC(=O)OC1C=CC(=O)OC1C (centres unmarked) [Compound 15, 4-O-(5-hydroxy-4-oxohexanoyl) osmundalactone]
- EC50 (MOLM13 cells): 111.9 ± 0.07 µM
- cytotoxic activity against the MOLM13 cells (in words) (MOLM13 cells): significant cytotoxic activity
- EC50 (H9c2 cells): 102.7 ± 0.12 µM
- reduced metabolic activity in the NRK cells at the highest concentration tested (NRK cells; 200 μM, 72 h): did not detect reduced metabolic activity
- EC50 (NRK cells): > 200 µM

SMILES: CC1=CC(=O)CC(C)(C)C1CCC(C)O[C@@H]1O[C@H](CO)[C@@H](O)[C@H](O)[C@H]1O (stereo partly drawn) [Compound 14, blumenol C 9-O-β-glucopyranoside]
- cytotoxic activity against the MOLM13 cells (in words) (MOLM13 cells): Only compounds 11 and 15, which are γ- and δ-lactones, respectively, exhibited significant cytotoxic activity

SMILES: COc1cc(C2Oc3c(OC)cc(CCCO)cc3[C@H]2CO)ccc1O[C@@H]1O[C@@H](C)[C@H](O)[C@@H](O)[C@H]1O (stereo partly drawn) [Compound 8, (7R,8S)-dihydrodehydrodiconiferyl alcohol 4-O-α-rhamnopyranoside]
- cytotoxic activity against the MOLM13 cells (in words) (MOLM13 cells): Only compounds 11 and 15, which are γ- and δ-lactones, respectively, exhibited significant cytotoxic activity

SMILES: CC1OC(OC2C(OC3C(Oc4c(-c5ccc(O)cc5)oc5cc(O)cc(O)c5c4=O)OC(CO)C(O)C3O)OC(COC(=O)C=Cc3ccc(O)c(O)c3)C(O)C2O)C(O)C(O)C1O (stereo not drawn) [Compound 6, kaempferol 3-O-(2’’-O-(2’’’-O-α-rhamnopyranosyl-6’’’-O-(E)-caffeoyl-)-β-glucopyranosyl)-β-glucopyranoside]
- cytotoxic activity against the MOLM13 cells (in words) (MOLM13 cells): Only compounds 11 and 15, which are γ- and δ-lactones, respectively, exhibited significant cytotoxic activity
